According to US11065286B2 (priority 2016, dated 2021):

How the values were obtained:
MDA-MB-231 cells = assay type: cell-based
[1] = tested on: Renca, MC38, and 4T1 cell lines; assay type: cell-based, mouse

## C/C=C/C/C=C/CCC(=O)[C@H]1O[C@H]1C(N)=O [cerulenin]
MDA-MB-231 cells
  vaccinia replication: significantly reduced vaccinia replication

## Bafilomycin A1
[1]
  viral gene expression with HMGB1mut expression in presence of inhibitor: loss of the increased viral gene expression
